From patent publication US8168651B2, “Protein kinase modulators” (Cylene Pharmaceuticals, Inc., priority 2008, dated 2012) come the findings set out here.

For one assay, the target named is recombinant human CK2 (Homo sapiens (Human), UniProt P68400). As to the kind of experiment: CK2 assay (cell-free, 33P-ATP filter plate). It counts as biochemical. As to conditions: 500 nM compound, cell-free assay; read-out: CK2: % inh 500 nM.
Assay [1] concerns HCT-116 human colorectal carcinoma cells. The assay can be described thus: Cell-proliferation assay using Alamar Blue dye.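 Note: cells exposed to compound for about 4 days, then Alamar Blue added and dye fluorescence read after about 4 h, compared with medium-only control wells.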 To be noted: Homo sapiens, HCT-116, second HCT-116 column (c8); read-out: HCT-116 (uM) cell proliferation modulatory activity. It counts as cell-based. A general note: The colour change of resazurin is a common sign of viable cells or microbes.
For a further assay, the target named is recombinant human PIM1 (Homo sapiens (Human), UniProt P11309). As to the kind of experiment: PIM-1 kinase activity in cell-free in vitro assay. Type of assay: biochemical. To be noted: cell-free assay; for inhibition at 0.5 µM: 500 nM compound, read-out: PIM-1: % inh 500 nM.
Another assay relates to K-562. As to the kind of experiment: Cell proliferation modulatory activity, K-562. It counts as cell-based. To be noted: Homo sapiens, K562; K-562 cells.
For another assay, the system named is MV-4-11. As to the kind of experiment: Cell proliferation modulatory activity, MV-4-11. Type of assay: cell-based. To be noted: Homo sapiens, MV4-11; MV-4-11 cells.

Structures are written as SMILES.

Chain of recombinant human PIM1 (P11309 whole entry): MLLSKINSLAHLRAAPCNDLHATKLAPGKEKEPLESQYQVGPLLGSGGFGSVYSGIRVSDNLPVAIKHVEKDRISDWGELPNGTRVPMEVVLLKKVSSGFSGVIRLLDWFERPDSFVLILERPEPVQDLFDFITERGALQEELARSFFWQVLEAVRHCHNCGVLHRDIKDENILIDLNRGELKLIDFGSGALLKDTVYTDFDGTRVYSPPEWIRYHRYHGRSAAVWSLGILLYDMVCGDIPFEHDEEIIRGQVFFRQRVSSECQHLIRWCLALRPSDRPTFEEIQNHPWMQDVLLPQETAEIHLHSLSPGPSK
Chain of recombinant human CK2 (P68400 whole entry): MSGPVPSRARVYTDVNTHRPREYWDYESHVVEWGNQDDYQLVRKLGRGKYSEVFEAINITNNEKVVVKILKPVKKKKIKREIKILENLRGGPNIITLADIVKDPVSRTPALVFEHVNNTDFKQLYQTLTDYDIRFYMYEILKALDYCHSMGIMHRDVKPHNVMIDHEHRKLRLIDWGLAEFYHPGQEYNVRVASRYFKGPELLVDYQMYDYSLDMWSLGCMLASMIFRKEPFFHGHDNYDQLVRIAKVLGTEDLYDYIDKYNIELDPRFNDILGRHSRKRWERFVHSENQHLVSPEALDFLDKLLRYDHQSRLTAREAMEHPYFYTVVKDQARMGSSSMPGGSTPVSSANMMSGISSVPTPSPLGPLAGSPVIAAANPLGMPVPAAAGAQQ
Chain of recombinant human CK2 (P67870 whole entry partner): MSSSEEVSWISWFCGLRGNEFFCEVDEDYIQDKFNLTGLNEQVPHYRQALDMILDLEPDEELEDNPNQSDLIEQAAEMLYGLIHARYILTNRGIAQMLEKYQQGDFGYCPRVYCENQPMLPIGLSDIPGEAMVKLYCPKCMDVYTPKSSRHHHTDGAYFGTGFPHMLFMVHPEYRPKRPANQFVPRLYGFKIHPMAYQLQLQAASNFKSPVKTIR

Turning to `CN(C)CCNc1nc2cc(-c3nnn[nH]3)ccc2c2sc(-c3ccccc3)cc12`, the inhibition at 0.5 µM on recombinant human CK2 was 0.269%; on recombinant human PIM1, -14.8%. Moreover, the IC50 (in assay [1]; in the assay with K-562; in the assay with MV-4-11) was > 10 µM throughout.
For `O=C(O)c1ccc2c(c1)nc(Nc1ccc(Br)cc1)c1ccncc12`, the inhibition at 0.5 µM at recombinant human CK2 came out at 97.8%; at recombinant human PIM1, 76.7%. In addition, the IC50 in assay [1] was > 10 µM; at recombinant human PIM1, 0.365 µM; with K-562 it was > 10 µM; with MV-4-11, 5.9 µM.
Take `O=C(O)c1ccc2c(c1)nc(Nc1ccc(F)c(Cl)c1)c1cnccc12`: the inhibition at 0.5 µM on recombinant human CK2 was 1.69%; at recombinant human PIM1 it was 10.8%. Moreover, the IC50 (in assay [1]; in the assay on K-562; with MV-4-11) was > 10 µM each time.
As to `NC(=O)c1cc(Cl)cc(Nc2nc3cc(C(=O)O)ccc3c3cnccc23)c1`, the figures for the inhibition at 0.5 µM at recombinant human CK2 and on recombinant human PIM1 were 102% and 90.5%, respectively. The IC50 in assay [1] is > 10 µM; on recombinant human PIM1, 0.09 µM; with K-562, > 10 µM; in the assay on MV-4-11, > 10 µM.
Regarding `CN1CCCC(Nc2nc3cc(C#N)ccc3c3sccc23)C1` (centres unmarked), the inhibition at 0.5 µM at recombinant human CK2 was -17.5%; at recombinant human PIM1, 20.8%. Also, the figures for the IC50 (in assay [1]; with K-562; in the assay on MV-4-11) were 1.42 µM, 5.06 µM and 3.23 µM, respectively.
In the same order, the values of `N#Cc1ccc2c(c1)nc(NCCn1ccnc1)c1ccsc12` are -14.9%, -0.12%, > 10 µM, > 10 µM and > 10 µM.
As for `NC1CCN(c2nc3cc(-c4nnn[nH]4)ccc3c3sccc23)C1` (centres unmarked), the inhibition at 0.5 µM is 30.8% on recombinant human CK2 and 63.6% on recombinant human PIM1. Moreover, the IC50 is > 10 µM in assay [1], 0.489 µM at recombinant human PIM1, > 10 µM with K-562 and 1.15 µM with MV-4-11.
Consider `CNC(=O)c1ccc2c(c1)nc(NCCN(C)C)c1ccsc12`, for which the inhibition at 0.5 µM was 8.24% at recombinant human CK2 and 5.73% on recombinant human PIM1. The IC50 is > 10 µM in assay [1], > 10 µM in the assay with K-562 and 0.535 µM in the assay with MV-4-11.
With `O=C(O)c1ccc2c(c1)nc(Nc1cccc(F)c1)c1cnccc12`, the inhibition at 0.5 µM turned out to be 35.8% at recombinant human CK2 and 55.4% at recombinant human PIM1. In addition, the IC50 was > 10 µM in assay [1], 0.746 µM on recombinant human PIM1, > 10 µM in the assay with K-562 and > 10 µM with MV-4-11.
For `COC(=O)c1ccc2c(c1)nc(NCCN(C)C)c1ccsc12`, the inhibition at 0.5 µM on recombinant human CK2 was -0.704%; at recombinant human PIM1, -6.89%. Further, the IC50 in assay [1] was 1.52 µM; in the assay on K-562, 1.09 µM; with MV-4-11, 0.73 µM.
Take `c1cc2c(N3CCC(N4CCCC4)CC3)nc3cc(-c4nnn[nH]4)ccc3c2s1`: the figures for the inhibition at 0.5 µM on recombinant human CK2 and on recombinant human PIM1 were 38.6% and 90%, respectively. Moreover, the IC50 was > 10 µM in assay [1], 0.119 µM on recombinant human PIM1, > 10 µM in the assay on K-562 and 1.07 µM in the assay on MV-4-11.
Take `C#Cc1cccc(Nc2nc3cc(C(=O)O)ccc3c3nccnc23)c1`: the inhibition at 0.5 µM is 85.3% at recombinant human CK2 and -4.59% at recombinant human PIM1. The IC50 (in assay [1]; with K-562; in the assay with MV-4-11) was > 10 µM throughout.
On to `CN(C)C1CCN(c2nc3cc(C#N)ccc3c3sccc23)CC1`, for which the inhibition at 0.5 µM at recombinant human CK2 was -0.522%; at recombinant human PIM1, 20.3%. In addition, the IC50 was 6.57 µM in assay [1], > 10 µM in the assay with K-562 and 6.05 µM with MV-4-11.
As to `COC(=O)c1ccc2c(c1)nc(NCCN1CCCC1)c1ccncc12`, the results for the inhibition at 0.5 µM at recombinant human CK2 and at recombinant human PIM1 were 8.15% and 17.8%, respectively. Moreover, the IC50 in assay [1] was 0.9 µM; in the assay on K-562, 1.25 µM; with MV-4-11, 0.368 µM.
For `O=C(O)c1ccc2c(c1)nc(Nc1cc(F)ccc1Br)c1ccncc12`, the inhibition at 0.5 µM at recombinant human CK2 came out at 98.4%; on recombinant human PIM1, 64.5%. In addition, the IC50 in assay [1] was > 10 µM; on recombinant human PIM1, 0.376 µM; with K-562 it was > 10 µM; with MV-4-11 it was 4.13 µM.
As to `CN(C)CCN(C)c1nc2cc(C#N)ccc2c2sccc12`, the inhibition at 0.5 µM was 64.1% on recombinant human CK2 and -3.15% on recombinant human PIM1. Further, the IC50 came to 0.511 µM in assay [1], 1.87 µM in the assay on K-562 and 1.07 µM with MV-4-11.
Regarding `N#Cc1ccc2c(c1)nc(NCCc1ccccn1)c1ccsc12`, the inhibition at 0.5 µM was found to be 5.18% on recombinant human CK2 and 10.6% at recombinant human PIM1. Moreover, the IC50 (in assay [1]; with K-562; in the assay with MV-4-11) was > 10 µM in each case.
As for `CCOCCNc1ncc2c(n1)c(N(C)c1ccccc1)nc1cc(C(=O)O)ccc12`, the inhibition at 0.5 µM at recombinant human CK2 stood at 79.4%; at recombinant human PIM1, 54.9%. In addition, the IC50 was > 10 µM in assay [1], 0.649 µM on recombinant human PIM1, > 10 µM in the assay with K-562 and > 10 µM with MV-4-11.
Turning to `Fc1cc(Cl)cc(Nc2nc3cc(-c4nnn[nH]4)ccc3c3cscc23)c1`, the inhibition at 0.5 µM at recombinant human CK2 was 57.3%; at recombinant human PIM1, 11.4%. For the same compound, the IC50 (in assay [1]; with K-562; in the assay on MV-4-11) was > 10 µM throughout.
Turning to `CN(c1cccc(Cl)c1)c1nc2cc(C(=O)O)ccc2c2cnccc12`, the inhibition at 0.5 µM on recombinant human CK2 turned out to be 89.6%; at recombinant human PIM1 it was 34.8%. The IC50 (in assay [1]; with K-562; in the assay with MV-4-11) was > 10 µM each time.
Take `CN(CCc1ccccn1)c1nc2cc(C#N)ccc2c2sccc12`: the inhibition at 0.5 µM came out at 44.5% at recombinant human CK2 and 19.4% on recombinant human PIM1. Besides, the IC50 (in assay [1]; in the assay on K-562; in the assay on MV-4-11) was > 10 µM each time.
For `N#Cc1ccc2c(c1)nc(NCCC1CCCN1)c1ccsc12` (centres unmarked), the inhibition at 0.5 µM on recombinant human CK2 came out at 37.1%; at recombinant human PIM1 it was 36.2%. For the same compound, the IC50 in assay [1] was 1.87 µM; in the assay on K-562 it was > 10 µM; with MV-4-11, 2.82 µM.
Consider `CCN(CC)CCNc1nc2cc(-c3nnn[nH]3)ccc2c2sccc12`, for which the inhibition at 0.5 µM was 52.6% at recombinant human CK2 and 87.3% at recombinant human PIM1. For the same compound, the IC50 in assay [1] is > 10 µM; at recombinant human PIM1 it was 0.127 µM; in the assay with K-562, > 10 µM; in the assay with MV-4-11, > 10 µM.
As to `c1cc2c(NCC3CCCN3)nc3cc(-c4nnn[nH]4)ccc3c2s1` (centres unmarked), the inhibition at 0.5 µM on recombinant human CK2 was determined as 86.1%; on recombinant human PIM1, 93.4%. Further, the IC50 in assay [1] is > 10 µM; at recombinant human PIM1 it was 0.046 µM; in the assay on K-562 it was > 10 µM; in the assay on MV-4-11, > 10 µM.
Consider `CN(c1nc2cc(C#N)ccc2c2sccc12)C(C1CC1)C1CC1`, for which the values for the inhibition at 0.5 µM on recombinant human CK2 and on recombinant human PIM1 were -17.1% and -19%, respectively. The IC50 (in assay [1]; in the assay on K-562; in the assay on MV-4-11) was > 10 µM each time.
As to `N#Cc1ccc2c(c1)nc(Nc1cccc(F)c1)c1cscc12`, the inhibition at 0.5 µM on recombinant human CK2 is -20.1%; on recombinant human PIM1 it was -28.6%. Besides, the IC50 in assay [1] was > 10 µM; in the assay with K-562, 8.04 µM; with MV-4-11, > 10 µM.
Regarding `N#Cc1ccc2c(c1)nc(N1CCNC(=O)C1)c1ccsc12`, the inhibition at 0.5 µM on recombinant human CK2 is -4.51%; on recombinant human PIM1, 8.04%. The IC50 (in assay [1]; in the assay with K-562; in the assay with MV-4-11) was > 10 µM in each case.
In the case of `Nc1ccc(CCNc2nc3cc(C(=O)O)ccc3c3cnccc23)cc1`, the values for the inhibition at 0.5 µM at recombinant human CK2 and on recombinant human PIM1 were 100% and 81.8%, respectively. Also, the IC50 in assay [1] is > 10 µM; on recombinant human PIM1, 0.321 µM; in the assay on K-562, > 10 µM; in the assay on MV-4-11 it was > 10 µM.
Regarding `O=C(O)c1ccc2c(c1)nc(Nc1cccc3ccccc13)c1ccncc12`, the inhibition at 0.5 µM worked out at 93.1% at recombinant human CK2 and 35.7% on recombinant human PIM1. For the same compound, the IC50 (in assay [1]; in the assay on K-562; in the assay with MV-4-11) was > 10 µM in each case.
For `N#Cc1ccc2c(c1)nc(Cl)c1sccc12`, the figures for the inhibition at 0.5 µM at recombinant human CK2 and on recombinant human PIM1 were -11.5% and -23.9%, respectively. In addition, the IC50 (in assay [1]; in the assay with K-562; in the assay on MV-4-11) was > 10 µM each time.
Take `NC(=O)c1cc(F)cc(Nc2nc3cc(C(=O)O)ccc3c3cnccc23)c1`: the values for the inhibition at 0.5 µM on recombinant human CK2 and on recombinant human PIM1 were 99.2% and 85%, respectively. The IC50 is > 10 µM in assay [1], 0.093 µM on recombinant human PIM1, > 10 µM with K-562 and > 10 µM with MV-4-11.
Turning to `CN(C)c1ncc2c(n1)c(N(C)c1ccccc1)nc1cc(C(=O)O)ccc12`, the inhibition at 0.5 µM at recombinant human CK2 was 14%; on recombinant human PIM1, 12.2%. The IC50 (in assay [1]; in the assay with K-562; in the assay on MV-4-11) was > 10 µM in each case.
Regarding `CC(C)c1cccc(Nc2nc3cc(C(=O)O)ccc3c3cnccc23)c1`, the inhibition at 0.5 µM at recombinant human CK2 was found to be 99.5%; at recombinant human PIM1, 72.4%. Also, the IC50 is > 10 µM in assay [1], 0.485 µM on recombinant human PIM1, > 10 µM in the assay on K-562 and 3.16 µM with MV-4-11.
Consider `CN(C)CCNc1nc2cc(C(=O)N(C)C)ccc2c2sccc12`, for which the inhibition at 0.5 µM is 11.8% at recombinant human CK2 and -3.56% on recombinant human PIM1. In addition, the IC50 in assay [1] was > 10 µM; in the assay with K-562, > 10 µM; in the assay on MV-4-11 it was 0.999 µM.
